Data as given in patent US20060063179A1, “MIFL- a new partner gene of MLL and methods of use thereof” (priority 2004, published 2006).

target: human DNA topoisomerase II (Homo sapiens, UniProt P11388); experiment: DNA topoisomerase II in vitro cleavage assay; type: biochemical; details: singly 5' end-labeled MLL intron 8 and MIFL intron 8 substrates; 147 nM enzyme, 1 mM ATP, 20 μM drug, 10 min 37° C.
Method: FIGS. 8A-8D provide images of autoradiographs depicting MLL bcr positions 5382-5570 (FIGS. 8A and 8B) or positions 1387 to 1424 in MIFL intron 8 (FIGS. 8C and 8D) identified utilizing topoisomerase II in vitro cleavage assays. Autoradiographs show cleavage products after 10 minute incubation at 37° C. of 25 ng (30,000 cpm) singly 5' end-labeled DNA with 147 nM human DNA topoisomerase II, 1 mM ATP and, where indicated, 20 μM etoposide, etoposide catechol, etoposide quinone or doxorubicin (FIGS. 8A and 8C), or lower doxorubicin concentrations (FIGS. 8B and 8D). Specified reactions were incubated for an additional 10 minutes at 75° C. before trapping the covalent complexes (FIGS. 8A and 8C). The 5' side (-1 position) of the cleavage sites are shown by the dashes at far right. Fragments of the MLL bcr spanning positions 5382-5570 in intron 8 or fragments of MIFL spanning positions 1309-1479 in intron 8 were subcloned into BamHI-NotI sites of TOPO pCR2.1 (Invitrogen). Twenty micrograms of plasmid DNA first was treated with 400 units T4 DNA ligase (New England Biolabs; Beverly, Mass.) for 1 hour to ensure that the substrates were not nicked. […] Calf intestinal phosphatase was inactivated in 5 mM EDTA (pH 8.0) and the DNA was PCI-extracted and ethanol precipitated. The DNA was then 5' end-labeled with [γ-^32P]ATP (Amersham; Arlington Heights, Ill.) and T4 polynucleotide kinase (New England Biolabs) as described (Felix et al. (1995) Cancer Res., 55:4287-92). Alternatively, to prepare cold substrate DNA, 20 μg of BamHI/NotI-digested, dephosphorylated plasmid were phosphorylated with 10 μM ATP (Boehringer Mannheim; Indianapolis, Ind.) in otherwise similar reactions. […] DNA recovery was quantitated by optical density measurement and scintillation counting. […] Cleavage products were visualized by autoradiography and quantitated using a PhosphorImager and ImageQuant software (Molecular Dynamics; Sunnyvale, Calif.).

Sequence of human DNA topoisomerase II (P11388 whole entry): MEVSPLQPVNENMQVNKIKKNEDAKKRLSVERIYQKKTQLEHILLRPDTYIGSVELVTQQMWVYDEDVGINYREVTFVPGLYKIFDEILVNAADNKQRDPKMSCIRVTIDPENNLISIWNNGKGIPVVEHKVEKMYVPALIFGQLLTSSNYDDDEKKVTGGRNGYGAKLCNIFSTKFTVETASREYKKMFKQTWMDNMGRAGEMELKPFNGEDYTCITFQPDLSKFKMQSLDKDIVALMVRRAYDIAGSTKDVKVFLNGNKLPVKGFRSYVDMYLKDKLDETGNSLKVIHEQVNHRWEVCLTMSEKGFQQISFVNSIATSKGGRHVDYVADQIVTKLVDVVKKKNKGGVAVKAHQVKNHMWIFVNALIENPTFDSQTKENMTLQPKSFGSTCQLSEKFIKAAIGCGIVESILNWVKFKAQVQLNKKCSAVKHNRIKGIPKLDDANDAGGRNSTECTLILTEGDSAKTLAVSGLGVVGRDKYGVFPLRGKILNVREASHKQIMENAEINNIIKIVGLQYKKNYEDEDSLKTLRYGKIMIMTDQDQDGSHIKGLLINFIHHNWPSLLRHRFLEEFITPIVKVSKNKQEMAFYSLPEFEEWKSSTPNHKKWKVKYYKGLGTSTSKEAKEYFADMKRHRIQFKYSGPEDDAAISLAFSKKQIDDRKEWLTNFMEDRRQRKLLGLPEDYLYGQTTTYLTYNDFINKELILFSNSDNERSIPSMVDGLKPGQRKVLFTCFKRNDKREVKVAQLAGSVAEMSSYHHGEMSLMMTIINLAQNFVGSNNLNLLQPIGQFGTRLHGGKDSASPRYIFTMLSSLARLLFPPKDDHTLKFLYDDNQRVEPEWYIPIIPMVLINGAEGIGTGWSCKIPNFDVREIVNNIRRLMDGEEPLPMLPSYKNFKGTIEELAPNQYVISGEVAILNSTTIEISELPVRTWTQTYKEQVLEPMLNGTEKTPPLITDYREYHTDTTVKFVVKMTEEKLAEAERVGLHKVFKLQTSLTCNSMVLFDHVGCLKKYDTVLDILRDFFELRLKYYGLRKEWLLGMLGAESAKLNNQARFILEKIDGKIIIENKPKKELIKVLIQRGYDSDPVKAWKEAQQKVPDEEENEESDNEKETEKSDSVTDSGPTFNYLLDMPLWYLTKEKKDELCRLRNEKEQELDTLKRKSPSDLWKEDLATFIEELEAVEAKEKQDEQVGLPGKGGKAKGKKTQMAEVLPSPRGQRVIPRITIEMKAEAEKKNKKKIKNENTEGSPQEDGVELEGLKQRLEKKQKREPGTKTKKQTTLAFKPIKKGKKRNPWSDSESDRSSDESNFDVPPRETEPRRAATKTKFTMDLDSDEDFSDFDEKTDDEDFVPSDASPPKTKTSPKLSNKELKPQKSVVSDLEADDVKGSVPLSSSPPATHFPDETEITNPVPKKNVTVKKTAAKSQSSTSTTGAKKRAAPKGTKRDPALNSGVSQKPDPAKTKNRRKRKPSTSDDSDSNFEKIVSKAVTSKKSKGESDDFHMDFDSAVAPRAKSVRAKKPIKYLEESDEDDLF

Row | Structure (SMILES) | formation of DNA topoisomerase II cleavage complexes at or near the translocation breakpoints
1 | COc1cccc2c1C(=O)c1c(O)c3c(c(O)c1C2=O)C[C@@](O)(C(=O)CO)C[C@@H]3O[C@H]1C[C@H](N)[C@H](O)[C@H](C)O1 [dox, doxorubicin] | marginal activity
2 | COC1=CC(C2c3cc4c(cc3C(O[C@@H]3O[C@@H]5COC(C)O[C@H]5[C@H](O)[C@H]3O)C3COC(=O)C23)OCO4)=CC(=O)C1=O (stereo partly drawn) [etoposide quinone] | increased the formation of DNA topoisomerase II cleavage complexes
3 | COc1cc([C@@H]2c3cc4c(cc3[C@@H](O[C@@H]3O[C@@H]5CO[C@@H](C)O[C@H]5[C@H](O)[C@H]3O)[C@H]3COC(=O)[C@H]23)OCO4)cc(OC)c1O [etoposide] | increased the formation of DNA topoisomerase II cleavage complexes
